PMC3236199, “Development of Derivatives of 3, 3′-Diindolylmethane as Potent Leishmania donovani Bi-Subunit Topoisomerase IB Poisons” (PLoS ONE, 2011)

Experiments:
[1] = system: L. donovani topoisomerase II; assay: Immunoband depletion assay, topoisomerase II; format: cell-based, Leishmania donovani; settings: 50 µM, antibody against ATPase domain of topoisomerase II
Experimental: Leishmania cells (3×10^7) were cultured in absence and presence of the drugs. Nuclear fractions were isolated as described. Briefly, cells were suspended in hypotonic buffer (10 mM Tris-HCl, pH 7.5, 1 mM EDTA, 0.1 mM EGTA, 1 mM PMSF, 1 mM benzamidine hydrochloride and 5 mM DTT) and homogenized. The homogenate was centrifuged for 10 min at 10,000 g. The pellets were washed and used as the source of nuclear fraction. Thereafter, the nuclear fractions were lysed with 1% SDS and subjected to SDS-PAGE (10%). The proteins were electrophoretically transferred to nitrocellulose membranes and immumobloting of immobilized proteins were carried out using a rabbit polyclonal antibody raised against LdTOP1S for topoisomerase I and ATPase domain of L. donovani topoisomerase II [8].
To rule out the topoisomerase II mediated cleavable complex stabilization by the derivatives, we have carried out immunoband depletion assay with antibody raised against ATPase domain (43 kDa) of L. donovani topoisomerase II.
Supplementary file pone.0028493.s001.tif: Figure S1 Stabilization of topoisomerase-II mediated cleavable complex was determined by immunoband depletion assay. Immunoband depletion of L. donovani topoisomerase II, using an antibody raised against LdTOP2 (ATPase domain, 43 kDa). […]

[2] = system: DIM resistant DR50 promastigotes; assay: Change in IC50 on prolonged exposure of DIM resistant promastigotes; format: cell-based; settings: Leishmania donovani
Experimental: L. donovani strain AG83 and DIM resistant parasite DR50 promastigotes were grown at 22°C in M199 liquid media supplemented with 10% FBS as described. Axenic amastigotes were cultured in modified M199 medium (pH 5.3) supplemented with 10 mM sodium succinate, 40 mM HEPES and 25% FCS and maintained at 37°C with 5% CO2.The effect of drugs on the viability of Leishmania parasites was determined by direct microscopic counting using light microscope (40× objective) in a haemocytometer. The cells at the exponential phase were collected and transferred into 24-well plate (3.5×10^6 cells per well). The cells were then incubated for 12 h in the presence of various concentrations of DIM, DPDIM, DMDIM and DMODIM (1, 5, 10, 20 and 50 µM). For other experiments, 10^4 cells were taken and grown in presence of the respective derivatives for a period of 30 days. For each 5 day interval, a small amount of aliquots were taken out. After incubation the cells were centrifuged and cell pellet was washed with PBS (1×) twice and finally suspended in 1 ml PBS (1×). […] One drop of the mixture was transferred to haemocytometer and the clear (live) and blue (dead) cells were counted. The total number of viable cells in aliquot was calculated by multiplying the total number of viable cells by 2 (the dilution factor for trypan blue). […] Percentages of viable cells were calculated using the formula: [drawing 1]
Figure 2 Effect of DIM-derivatives on Leishmania parasites. Growth of L. donovani AG83 promastigotes (A) and DIM resistant promastigotes (B) were monitored in presence of increasing concentrations (1, 5, 10, 20 and 50 µM) of DIM, DPDIM, DMDIM and DMODIM for 12 h. […] Change in IC50 values after a prolong exposure to DIM derivatives (C) has been assessed as described in Materials and Methods. After every 5 day a small aliquot was taken out and number of viable promastigotes was counted for each concentration. IC50 values have been determined from them using Graph Pad Prsim ver 5.0 software and a graphical plot was generated over time. […]

c1ccc2c(Cc3c[nH]c4ccccc34)c[nH]c2c1 [DIM, 3, 3′-diindolyl methane, reference compound]
stabilization of topoisomerase II mediated cleavage complex [1]: do not stabilize cleavage complex formation

COc1ccc2[nH]cc(Cc3c[nH]c4ccc(OC)cc34)c2c1 [DMODIM, 5,5′-dimethoxy 3,3′-diindolyl methane]
IC50 ([2]; 24 h): 7260 nM

c1ccc(-c2[nH]c3ccccc3c2Cc2c(-c3ccccc3)[nH]c3ccccc23)cc1 [DPDIM, 2,2′-diphenyl 3,3′-diindolyl methane]
IC50 [2]: 50 nM | IC50 ([2]; 24 h): 2300 nM
